Source: PubChem BioAssay (NCI)
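Assay format: 96-well plates, 48-hour exposure. Abbreviation: GI50, concentration required for 50% inhibition of growth. TGI is the concentration that stops growth completely.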

Tests used:
Experiment in all cases: NCI anticancer screen, dose series, 48 h
[1] = system: COLO 205 colon
[2] = system: ACHN renal
[3] = system: NCI-H23 lung
[4] = system: SR leukemia
[5] = system: A498 renal
[6] = system: IGROV1 ovarian
[7] = system: SW-620 colon
[8] = system: OVCAR-3 ovarian
[9] = system: MCF7 breast
[10] = system: EKVX NSCLC
[11] = system: SK-MEL-2 melanoma
[12] = system: NCI/ADR-RES ovarian
[13] = system: NCI-H522 lung
[14] = system: SK-MEL-5 melanoma
[15] = system: MOLT-4 leukemia
[16] = system: SF-295 CNS
[17] = system: MDA-MB-231 breast
[18] = system: U251 CNS
[19] = system: HOP-92 NSCLC
[20] = system: SNB-19 CNS
[21] = system: RXF 393 renal
[22] = system: HS 578T breast
[23] = system: MDA-MB-435
[24] = system: SF-539 CNS
[25] = system: UACC-62 melanoma
[26] = system: OVCAR-4 ovarian
[27] = system: HT29 colon
[28] = system: CAKI-1 renal
[29] = system: OVCAR-5 ovarian
[30] = system: SK-OV-3 ovarian
[31] = system: MALME-3M melanoma
[32] = system: CCRF-CEM leukemia
[33] = system: SF-268 CNS
[34] = system: T-47D breast
[35] = system: HCC-2998 colon
[36] = system: A549 NSCLC
[37] = system: SNB-75 CNS
[38] = system: TK-10 renal
[39] = system: UACC-257 melanoma
[40] = system: UO-31 renal
[41] = system: NCI-H226 lung
[42] = system: NCI-H460 lung
[43] = system: 786-0 renal
[44] = system: RPMI-8226 leukemia
[45] = system: HOP-62 NSCLC
[46] = system: PC-3 prostate
[47] = system: BT-549 breast
[48] = system: LOX IMVI melanoma
[49] = system: SK-MEL-28 melanoma
[50] = system: OVCAR-8 ovarian
[51] = system: HCT-116 colon
[52] = system: HCT-15 colon
[53] = system: KM12 colon
[54] = system: HL-60(TB) leukemia
[55] = system: M14 melanoma
[56] = system: DU-145 prostate

`Cc1nc2cc(-n3c(-c4ccc(F)cc4)nc4ccccc4c3=O)ccc2n1Cc1ccccc1` showed a GI50 [1] of 2.11 µM, a TGI [1] of 5.1 µM and a GI50 [2] of 2.05 µM. The TGI [2] was 4.63 µM, the GI50 [3] was 4.23 µM and the TGI [3] was 37.6 µM. For the same compound, the GI50 [4] was 2.7 µM, the TGI [4] was over 100 µM and the GI50 [5] was 2.23 µM. The TGI [5] was 11.6 µM, the GI50 [6] was 5.9 µM and the TGI [6] was 31.2 µM. For the same compound, the GI50 [7] was 3.16 µM, the TGI [7] was 19.2 µM and the GI50 [8] was 2.35 µM. It also gave a TGI [8] of 5.2 µM, a GI50 [9] of 2.24 µM and a TGI [9] of 5.56 µM. The GI50 [10] was 6.28 µM, the TGI [10] was 49.9 µM and the GI50 [11] was 2.32 µM. It also gave a TGI [11] of 8.6 µM, a GI50 [12] of 1.85 µM and a TGI [12] of 4.56 µM. It also gave a GI50 [13] of 1.94 µM, a TGI [13] of 6.49 µM and a GI50 [14] of 2.67 µM. The TGI [14] was 9.07 µM, the GI50 [15] was 3.52 µM and the TGI [15] was over 100 µM. It also gave a GI50 [16] of 2.32 µM, a TGI [16] of 5.73 µM and a GI50 [17] of 1.91 µM. It also gave a TGI [17] of 5.09 µM, a GI50 [18] of 2.19 µM and a TGI [18] of 5.18 µM. For the same compound, the GI50 [19] was 2.47 µM, the TGI [19] was 8.25 µM and the GI50 [20] was 4.57 µM. The TGI [20] was 26.8 µM, the GI50 [21] was 1.89 µM and the TGI [21] was 4.26 µM. It also gave a GI50 [22] of 2.68 µM, a TGI [22] of 8.6 µM and a GI50 [23] of 1.98 µM. For the same compound, the TGI [23] was 4.21 µM, the GI50 [24] was 1.91 µM and the TGI [24] was 3.79 µM. For the same compound, the GI50 [25] was 2.8 µM, the TGI [25] was 9.79 µM and the GI50 [26] was 2.24 µM. It also gave a TGI [26] of 5.26 µM, a GI50 [27] of 2.23 µM and a TGI [27] of 4.71 µM. For the same compound, the GI50 [28] was 1.89 µM, the TGI [28] was 4.51 µM and the GI50 [29] was 5.48 µM. For the same compound, the TGI [29] was 24.1 µM, the GI50 [30] was 3.55 µM and the TGI [30] was 13.8 µM. For the same compound, the GI50 [31] was 2.36 µM, the TGI [31] was 5.36 µM and the GI50 [32] was 8.34 µM. The TGI [32] was over 100 µM, the GI50 [33] was 2.83 µM and the TGI [33] was 10.1 µM. For the same compound, the GI50 [34] was 1.7 µM, the TGI [34] was 4.22 µM and the GI50 [35] was over 100 µM. For the same compound, the TGI [35] was over 100 µM, the GI50 [36] was 2.02 µM and the TGI [36] was 4.66 µM. For the same compound, the GI50 [37] was 1.49 µM, the TGI [37] was 3.6 µM and the GI50 [38] was 2.73 µM. The TGI [38] was 7.17 µM, the GI50 [39] was 2.64 µM and the TGI [39] was 6.68 µM. The GI50 [40] was 2.15 µM, the TGI [40] was 8.42 µM and the GI50 [41] was 2.02 µM. It also gave a TGI [41] of 6.51 µM, a GI50 [42] of 2.01 µM and a TGI [42] of 4.09 µM. The GI50 [43] was 1.86 µM, the TGI [43] was 3.62 µM and the GI50 [44] was 5.58 µM. The TGI [44] was 39.7 µM, the GI50 [45] was 2.44 µM and the TGI [45] was 6.98 µM. It also gave a GI50 [46] of 1.96 µM, a TGI [46] of 5.3 µM and a GI50 [47] of 1.71 µM. For the same compound, the TGI [47] was 3.48 µM, the GI50 [48] was 1.97 µM and the TGI [48] was 4.59 µM. It also gave a GI50 [49] of 2 µM, a TGI [49] of 3.94 µM and a GI50 [50] of 2.31 µM. The TGI [50] was 6.06 µM, the GI50 [51] was 1.57 µM and the TGI [51] was 3.39 µM. For the same compound, the GI50 [52] was 2.94 µM, the TGI [52] was 11.6 µM and the GI50 [53] was 3.12 µM. It also gave a TGI [53] of 15.7 µM, a GI50 [54] of 13 µM and a TGI [54] of over 100 µM. For the same compound, the GI50 [55] was 2.13 µM, the TGI [55] was 4.62 µM and the GI50 [56] was 2.6 µM. The TGI [56] was 6.95 µM.
